# Data as given in US6506766B1 (Abbott Laboratories, priority 1998, dated 2003).
# Read-outs that look alike come from different tables or passages of the source.
# Columns and labels:
# [1] = target: T1, human progesterone receptor-A [PRA] isoform (Homo sapiens, UniProt P06401); experiment: Radioligand binding with human progesterone receptor cytosol ([3H]-progesterone competition); details: read-out: Ki (nM) PR
# T1 construct: host or cells: insect SF21 cells (baculovirus)
# T1 sequence (P06401 1-769 isoform P06401-2): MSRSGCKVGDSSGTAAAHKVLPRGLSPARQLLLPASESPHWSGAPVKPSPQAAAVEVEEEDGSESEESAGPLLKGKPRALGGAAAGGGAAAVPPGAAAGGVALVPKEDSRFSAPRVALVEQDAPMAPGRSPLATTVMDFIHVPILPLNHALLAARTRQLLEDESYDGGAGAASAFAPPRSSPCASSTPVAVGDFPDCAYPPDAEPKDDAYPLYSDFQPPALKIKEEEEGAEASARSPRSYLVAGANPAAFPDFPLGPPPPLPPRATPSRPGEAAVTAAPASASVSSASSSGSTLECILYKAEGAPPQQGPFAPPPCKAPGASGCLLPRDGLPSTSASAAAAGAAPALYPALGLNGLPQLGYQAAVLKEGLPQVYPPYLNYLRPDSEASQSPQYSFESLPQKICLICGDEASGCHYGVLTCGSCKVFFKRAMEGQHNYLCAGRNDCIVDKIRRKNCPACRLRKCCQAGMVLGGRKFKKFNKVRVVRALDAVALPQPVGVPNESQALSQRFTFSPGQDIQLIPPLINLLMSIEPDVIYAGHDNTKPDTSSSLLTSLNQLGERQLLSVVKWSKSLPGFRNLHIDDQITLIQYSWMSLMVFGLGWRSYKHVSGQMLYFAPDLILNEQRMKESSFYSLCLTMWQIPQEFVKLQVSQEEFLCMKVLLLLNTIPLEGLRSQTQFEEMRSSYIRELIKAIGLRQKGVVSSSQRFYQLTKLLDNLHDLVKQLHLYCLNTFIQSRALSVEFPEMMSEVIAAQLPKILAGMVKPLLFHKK
# [2] = target: T2, human glucocorticoid receptor-α [GRX] isoform (Homo sapiens, UniProt P04150); experiment: Radioligand binding with human glucocorticoid receptor cytosol ([3H]-dexamethasone competition); details: read-out: Ki (nM) GR
# T2 construct: host or cells: insect SF21 cells (baculovirus)
# T2 sequence (P04150 1-777): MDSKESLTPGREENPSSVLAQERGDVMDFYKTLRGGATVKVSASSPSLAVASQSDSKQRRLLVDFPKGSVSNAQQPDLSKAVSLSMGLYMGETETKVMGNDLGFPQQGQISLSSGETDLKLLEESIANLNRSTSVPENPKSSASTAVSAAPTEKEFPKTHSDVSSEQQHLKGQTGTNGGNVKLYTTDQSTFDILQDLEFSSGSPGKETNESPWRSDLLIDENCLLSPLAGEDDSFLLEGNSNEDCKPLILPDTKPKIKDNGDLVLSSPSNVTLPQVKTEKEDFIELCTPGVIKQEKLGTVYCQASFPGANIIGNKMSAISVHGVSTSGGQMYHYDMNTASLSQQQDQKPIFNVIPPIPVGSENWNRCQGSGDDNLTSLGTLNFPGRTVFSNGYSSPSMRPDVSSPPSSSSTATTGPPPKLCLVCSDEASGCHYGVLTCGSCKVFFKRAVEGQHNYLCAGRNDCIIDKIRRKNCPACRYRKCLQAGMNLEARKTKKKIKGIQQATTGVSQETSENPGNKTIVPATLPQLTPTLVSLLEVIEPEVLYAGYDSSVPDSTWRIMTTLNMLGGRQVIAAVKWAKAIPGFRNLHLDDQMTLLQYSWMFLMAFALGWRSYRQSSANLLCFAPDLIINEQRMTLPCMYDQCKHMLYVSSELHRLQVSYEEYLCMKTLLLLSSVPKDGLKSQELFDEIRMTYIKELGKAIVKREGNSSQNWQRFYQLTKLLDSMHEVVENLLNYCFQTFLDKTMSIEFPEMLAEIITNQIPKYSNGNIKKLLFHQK
# [3] = PRA cytosol expressed in insect SF21 cells, [3H]Prog ~0.8 nM, 4° C. overnight, Ki by Cheng-Prusoff, KL ~4.5 nM
# [4] = GRX cytosol expressed in insect SF21 cells, [3H]-Dex ~0.9 nM, 4° C. overnight, Ki by Cheng-Prusoff, KL ~[…]
melting point [°C],"Ki [1, 3] [nM]","Ki [2, 4] [nM]",Compound,Ki [1] [nM],Ki [2] [nM]
130 to 135,3900,46,"COc1cccc2c1-c1ccc3c(c1C(CC=C1CCCCC1)O2)C(C)=CC(C)(C)N3 (stereo not shown) [Example 187, 2,5-Dihydro-10-methoxy-5-(2-cyclohexylidenylethyl)-2,2,4-trimethyl-1H-[1]benzopyrano[3,4-f]quinoline]",,
130 to 135,≥ 10000,201,COc1cccc2c1-c1ccc3c(c1C(CNC(=O)OC(C)(C)C)O2)C(C)=CC(C)(C)N3 (stereo not shown) [Example 206],,
150 to 152,≥ 10000,652,"COC(=O)c1cccc2c1-c1ccc3c(c1C(c1ccccc1)O2)C(C)=CC(C)(C)N3 (stereo not shown) [Example 335, Methyl 2,5-Dihydro-5-phenyl-2,2,4-trimethyl-1H-[1]benzopyrano[3,4-f]quinoline-10-carboxylate]",,
218 to 224,≥ 10000,112,"C=Cc1cccc2oc(=O)c3c4c(ccc3c12)NC(C)(C)C=C4C [Example 339, 2,5-Dihydro-10-ethenyl-5-oxo-2,2,4-trimethyl-1H-[1]benzopyrano[3,4-f]quinoline]",,
198 to 201,,,"C=Cc1cccc2c1-c1ccc3c(c1C(C1(C)CC=CCC1)O2)C(C)=CC(C)(C)N3 (stereo not shown) [Example 341, 2,5-Dihydro-10-ethenyl-5-[1-methyl-3-cyclohexenyl]-2,2,4-trimethyl-1H-[1]benzopyrano[3,4-f]quinoline]",,
,3940,0.35,"COc1c(OC(=O)CCC(=O)N(C)C)ccc2c1-c1ccc3c(c1C(c1cccs1)O2)C(C)=CC(C)(C)N3 (stereo not shown) [Example 425, 2,5-Dihydro-9-(4-N,N-dimethylamino-4-oxo-butanoyloxy)-10-methoxy-2,2,4-trimethyl-5-(2-thienyl)-1H-[1]benzopyrano[3,4-f]quinoline]",,
,110,0.85,"C=CCC1Oc2ccc(OC(=O)CCCN(C)C)c(OC)c2-c2ccc3c(c21)C(C)=CC(C)(C)N3 (stereo not shown) [Example 426, 2,5-Dihydro-9-(4-N,N-dimethylaminobutanoyloxy)-10-methoxy-2,2,4-trimethyl-5-(2-propenyl)-1H-[1]benzopyrano[3,4-f]quinoline]",,
,,,"C=CCC1Oc2ccc(OC(=O)NCC(=O)OCC)c(OC)c2-c2ccc3c(c21)C(C)=CC(C)(C)N3 (stereo not shown) [Example 427, 9-(2-Ethoxy-2-oxo-ethylaminocarbonyl)-oxy-10-methoxy-5-(3-propenyl)-2,2,4-trimethyl-1H-2,5-dihydro-[1]benzopyrano[3,4-f]quinoline]",2200,7.8
,281,4.8,"COc1c(O)ccc2c1-c1ccc3c(c1C(=Cc1ccccc1)O2)C(C)=CC(C)(C)N3 [Example 430, 9-Hydroxy-10-methoxy-5-(phenylmethylene)-2,2,4-trimethyl-1H-2,5-dihydro-[1]benzopyrano[3,4-f]quinoline]",,
,≥ 10000,113,"C=CCC1Oc2ccc(OC(=S)N(C)C)c(OC)c2-c2ccc3c(c21)C(C)=CC(C)(C)N3 (stereo not shown) [Example 431, 9-(Dimethylaminothiocarbonyl)-oxy-10-methoxy-5-(3-propenyl)-2,2,4-trimethyl-1H-2,5-dihydro-[1]benzopyrano[3,4-f]quinoline]",,
,734,120,"CC1=CC(C)(C)Nc2ccc3c(c21)C(c1cc(F)c(F)c(F)c1)Oc1ccc(O)c(Cl)c1-3 (stereo not shown) [Example 435, 2,5-Dihydro-9-hydroxy-10-chloro-2,2,4-trimethyl-5-(3,4,5-trifluorophenyl)-1H-[1]benzopyrano[3,4-f]quinoline]",,
,5920,18.8,"C=CCC1Oc2ccc(OCSC)c(OC)c2-c2ccc3c(c21)C(C)=CC(C)(C)N3 (stereo not shown) [Example 436, 2,5-Dihydro-9-methylthiomethoxy-10-methoxy-2,2,4-trimethyl-5-allyl-1H-[1]benzopyrano[3,4-f]quinoline]",,
,449,0.97,C=CCC1Oc2ccc(OC(=O)CCCC(=O)N(CC)CC)c(OC)c2-c2ccc3c(c21)C(C)=CC(C)(C)N3 (stereo not shown) [Example 437],,
,129,0.89,C=CCC1Oc2ccc(OC(=O)CCCC(=O)N(C)C)c(OC)c2-c2ccc3c(c21)C(C)=CC(C)(C)N3 (stereo not shown) [Example 438],,
,202,1.2,C=CCC1Oc2ccc(OC(=O)CCCC(=O)N3CCCCC3)c(OC)c2-c2ccc3c(c21)C(C)=CC(C)(C)N3 (stereo not shown) [Example 439],,
,390,0.7,C=CCC1Oc2ccc(OC(=O)CCCC(=O)N3CCOCC3)c(OC)c2-c2ccc3c(c21)C(C)=CC(C)(C)N3 (stereo not shown) [Example 440],,
,328,0.42,"COc1c(OC(=O)CCC(=O)N(C)C)ccc2c1-c1ccc3c(c1[C@H]([C@@H]1C=CCC1)O2)C(C)=CC(C)(C)N3 [Example 441, (−)2,5-Dihydro-9-(4-N,N-dimethylamino-4-oxo-butanoyloxy)-10-methoxy-2,2,4-trimethyl-5(S)-(3(S)-1-cyclopenten-3-yl)-1H-[1]benzopyrano[3,4-f]quinoline]",,
,,,"C=CCNC(=O)Oc1ccc2c(c1OC)-c1ccc3c(c1C(CC=C)O2)C(C)=CC(C)(C)N3 (stereo not shown) [Example 442, 10-Methoxy-9-(allylaminocarbonyl)oxy-5-(3-propenyl)-2,2,4-trimethyl-1H-2,5-dihydro-[1]benzopyrano[3,4-f]quinoline]",8860,9.1
,,,"C=CCC1Oc2ccc(OC(=O)NC3CCCCC3)c(OC)c2-c2ccc3c(c21)C(C)=CC(C)(C)N3 (stereo not shown) [Example 443, 10-Methoxy-9-(cyclohexylaminocarbonyl)-oxy-5-(3-propenyl)-2,2,4-trimethyl-1H-2,5-dihydro-[1]benzopyrano[3,4-f]quinoline]",≥ 10000,63.5
,406,1.6,"COc1c(O)ccc2c1-c1ccc3c(c1C(c1ccsc1)O2)C(C)=CC(C)(C)N3 (stereo not shown) [Example 444, 2,5-Dihydro-9-hydroxy-10-methoxy-2,2,4-trimethyl-5-(3-thienyl)-1H-[1]benzopyrano[3,4-f]quinoline]",,
,3470,4,"COc1c(O)ccc2c1-c1ccc3c(c1C(Cc1ccc(F)cc1)O2)C(C)=CC(C)(C)N3 (stereo not shown) [Example 445, 2,5-Dihydro-9-hydroxy-10-methoxy-2,2,4-trimethyl-5-(4-(fluorophenyl)methyl)-1H-[1]benzopyrano[3,4-f]quinoline]",,
,,,"(+/−)2,5-Dihydro-9-hydroxy-10-methoxy-2,2,4-trimethyl-5(S)-(3(S)-1-hydroxymethylcyclopenten-3-yl)-1H-[1]benzopyrano[3,4-f]quinoline [Example 270]",4760,0.66
,≥ 10000,17.7,"O-[3-(2,5-Dihydro-10-methoxy-2,2,4-trimethyl-1H-[1]benzopyrano[3,4-f]quinolin-5-yl)phenyl]ester [Example 102]",,
